ChEMBL document CHEMBL4808194, “Design, synthesis and biological evaluation of novel 2,4-disubstituted quinazoline derivatives targeting H1975 cells via EGFR-PI3K signaling pathway” (Bioorg Med Chem, 2021)
pIC50: −log10 of the molar value. Active and inactive are the calls of the source. The rule behind the calls is not given here.

Key:
MDA-MB-231 = test: cells; assay type: functional, cell-based; conditions: Homo sapiens, MDA-MB-231, 72 h
MGC-803 = test: cells; assay type: functional, cell-based; conditions: Homo sapiens, MGC-803, 72 h
Description: Antiproliferative activity against human MGC-803 cells assessed as inhibition of cell growth incubated for 72 hrs by MTT assay

NCI-H1975 [1] = test: cells; assay type: functional, cell-based; conditions: Homo sapiens, NCI-H1975, 72 h
Description: Antiproliferative activity against human NCI-H1975 cells assessed as inhibition of cell growth incubated for 72 hrs by MTT assay

PC-3 = test: cells; assay type: functional, cell-based; conditions: Homo sapiens, PC-3, 72 h
Description: Antiproliferative activity against human PC-3 cells assessed as inhibition of cell growth incubated for 72 hrs by MTT assay

NCI-H1975 [2] = test: Cell cycle arrest in human NCI-H1975 cells assessed as accumulation at G1 phase at 2 uM incubated for 24 hrs by propidium iodide staining based flow cytometric analysis (reference value: 50.56 %); assay type: functional
NCI-H1975 [3] = test: Induction of apoptosis in human NCI-H1975 cells assessed as shrunken and broken nuclear morphology at 2 to 8 uM incubated for 48 hrs by DAPI staining based fluorescence microscopic analysis; assay type: functional, cell-based; conditions: dose 2-8 µM
NCI-H1975 [4] = test: Induction of apoptosis in human NCI-H1975 cells assessed as viable cells at 2 uM incubated for 48 hrs Annexin V-FITC/PI staining based flow cytometric analysis (reference value: 90.9%); assay type: functional; conditions: read-out: Activity
NCI-H1975 [5] = test: Inhibition of cell migration in human NCI-H1975 cells incubated for 72 hrs by scratch wound healing assay; assay type: functional, cell-based; conditions: dose 0.5-2 µM
NCI-H1975 [6] = test: Inhibition of colony formation in human NCI-H1975 cells assessed as fewer and smaller cell colonies incubated for 7 days by crystal violet staining based microscopic analysis; assay type: functional; conditions: dose 0.5-2 µM, time 7.0 day
NCI-H1975 [7] = test: Cell cycle arrest in human NCI-H1975 cells assessed as accumulation at S phase at 2 uM incubated for 24 hrs by propidium iodide staining based flow cytometric analysis (reference value: 30.87%); assay type: functional
NCI-H1975 [8] = test: Cell cycle arrest in human NCI-H1975 cells assessed as accumulation at G2 phase at 2 uM incubated for 24 hrs by propidium iodide staining based flow cytometric analysis (reference value: 18.57 %); assay type: functional
NCI-H1975 [9] = test: Cell cycle arrest in human NCI-H1975 cells assessed as accumulation at G1 phase at 4 uM incubated for 24 hrs by propidium iodide staining based flow cytometric analysis (reference value: 50.56 %); assay type: functional
NCI-H1975 [10] = test: Cell cycle arrest in human NCI-H1975 cells assessed as accumulation at S phase at 4 uM incubated for 24 hrs by propidium iodide staining based flow cytometric analysis (reference value: 30.87%); assay type: functional
NCI-H1975 [11] = test: Cell cycle arrest in human NCI-H1975 cells assessed as accumulation at G2 phase at 4 uM incubated for 24 hrs by propidium iodide staining based flow cytometric analysis (reference value: 18.57 %); assay type: functional
NCI-H1975 [12] = test: Cell cycle arrest in human NCI-H1975 cells assessed as accumulation at G1 phase at 8 uM incubated for 24 hrs by propidium iodide staining based flow cytometric analysis (reference value: 50.56 %); assay type: functional
NCI-H1975 [13] = test: Cell cycle arrest in human NCI-H1975 cells assessed as accumulation at S phase at 8 uM incubated for 24 hrs by propidium iodide staining based flow cytometric analysis (reference value: 30.87%); assay type: functional
NCI-H1975 [14] = test: Cell cycle arrest in human NCI-H1975 cells assessed as accumulation at G2 phase at 8 uM incubated for 24 hrs by propidium iodide staining based flow cytometric analysis (reference value: 18.57 %); assay type: functional
NCI-H1975 [15] = test: Induction of apoptosis in human NCI-H1975 cells assessed as increase in p53 level at 2 to 8 uM by western blot analysis; assay type: functional, cell-based; conditions: dose 2-8 µM
NCI-H1975 [16] = test: Induction of apoptosis in human NCI-H1975 cells assessed as increase in Bax level at 2 to 8 uM by western blot analysis; assay type: functional, cell-based; conditions: dose 2-8 µM
NCI-H1975 [17] = test: Induction of apoptosis in human NCI-H1975 cells assessed as decrease in Bcl2 level at 2 to 8 uM by western blot analysis; assay type: functional, cell-based; conditions: dose 2-8 µM
NCI-H1975 [18] = test: Induction of ROS generation in human NCI-H1975 cells assessed increase in ROS level at 2 to 8 uM incubated for 48 hrs by DHE staining based fluorescence microscopy; assay type: functional, cell-based; conditions: dose 2-8 µM
[19] = molecular target: Epidermal growth factor receptor (Homo sapiens) (UniProt P00533); test: Inhibition of EGFR in human NCI-H1975 cells assessed as reduction in EGFR phosphorylation level by Western blot analysis; assay type: cell-based; conditions: dose 2-8 µM
[20] = molecular target: Epidermal growth factor receptor (Homo sapiens) (UniProt P00533); test: Inhibition of EGFR in human NCI-H1975 cells assessed as reduction in PI3K phosphorylation level by Western blot analysis; assay type: cell-based; conditions: dose 2-8 µM
NCI-H1975 [21] = test: Induction of apoptosis in human NCI-H1975 cells assessed as early apoptotic cells at 2 uM incubated for 48 hrs Annexin V-FITC/PI staining based flow cytometric analysis (reference value: 1%); assay type: functional
NCI-H1975 [22] = test: Induction of apoptosis in human NCI-H1975 cells assessed as late apoptotic cells at 2 uM incubated for 48 hrs Annexin V-FITC/PI staining based flow cytometric analysis (reference value: 2.53%); assay type: functional
NCI-H1975 [23] = test: Induction of apoptosis in human NCI-H1975 cells assessed as necrotic cells at 2 uM incubated for 48 hrs Annexin V-FITC/PI staining based flow cytometric analysis (reference value: 4.74%); assay type: functional
NCI-H1975 [24] = test: Induction of apoptosis in human NCI-H1975 cells assessed as viable cells at 4 uM incubated for 48 hrs Annexin V-FITC/PI staining based flow cytometric analysis (reference value: 90.9%); assay type: functional; conditions: read-out: Activity
NCI-H1975 [25] = test: Induction of apoptosis in human NCI-H1975 cells assessed as early apoptotic cells at 4 uM incubated for 48 hrs Annexin V-FITC/PI staining based flow cytometric analysis (reference value: 1%); assay type: functional
NCI-H1975 [26] = test: Induction of apoptosis in human NCI-H1975 cells assessed as late apoptotic cells at 4 uM incubated for 48 hrs Annexin V-FITC/PI staining based flow cytometric analysis (reference value: 2.53%); assay type: functional
NCI-H1975 [27] = test: Induction of apoptosis in human NCI-H1975 cells assessed as necrotic cells at 4 uM incubated for 48 hrs Annexin V-FITC/PI staining based flow cytometric analysis (reference value: 4.74%); assay type: functional
NCI-H1975 [28] = test: Induction of apoptosis in human NCI-H1975 cells assessed as viable cells at 8 uM incubated for 48 hrs Annexin V-FITC/PI staining based flow cytometric analysis (reference value: 90.9%); assay type: functional; conditions: read-out: Activity
NCI-H1975 [29] = test: Induction of apoptosis in human NCI-H1975 cells assessed as early apoptotic cells at 8 uM incubated for 48 hrs Annexin V-FITC/PI staining based flow cytometric analysis (reference value: 1%); assay type: functional
NCI-H1975 [30] = test: Induction of apoptosis in human NCI-H1975 cells assessed as late apoptotic cells at 8 uM incubated for 48 hrs Annexin V-FITC/PI staining based flow cytometric analysis (reference value: 2.53%); assay type: functional
NCI-H1975 [31] = test: Induction of apoptosis in human NCI-H1975 cells assessed as necrotic cells at 8 uM incubated for 48 hrs Annexin V-FITC/PI staining based flow cytometric analysis (reference value: 4.74%); assay type: functional

Chain of Epidermal growth factor receptor (Homo sapiens) (P00533 whole entry): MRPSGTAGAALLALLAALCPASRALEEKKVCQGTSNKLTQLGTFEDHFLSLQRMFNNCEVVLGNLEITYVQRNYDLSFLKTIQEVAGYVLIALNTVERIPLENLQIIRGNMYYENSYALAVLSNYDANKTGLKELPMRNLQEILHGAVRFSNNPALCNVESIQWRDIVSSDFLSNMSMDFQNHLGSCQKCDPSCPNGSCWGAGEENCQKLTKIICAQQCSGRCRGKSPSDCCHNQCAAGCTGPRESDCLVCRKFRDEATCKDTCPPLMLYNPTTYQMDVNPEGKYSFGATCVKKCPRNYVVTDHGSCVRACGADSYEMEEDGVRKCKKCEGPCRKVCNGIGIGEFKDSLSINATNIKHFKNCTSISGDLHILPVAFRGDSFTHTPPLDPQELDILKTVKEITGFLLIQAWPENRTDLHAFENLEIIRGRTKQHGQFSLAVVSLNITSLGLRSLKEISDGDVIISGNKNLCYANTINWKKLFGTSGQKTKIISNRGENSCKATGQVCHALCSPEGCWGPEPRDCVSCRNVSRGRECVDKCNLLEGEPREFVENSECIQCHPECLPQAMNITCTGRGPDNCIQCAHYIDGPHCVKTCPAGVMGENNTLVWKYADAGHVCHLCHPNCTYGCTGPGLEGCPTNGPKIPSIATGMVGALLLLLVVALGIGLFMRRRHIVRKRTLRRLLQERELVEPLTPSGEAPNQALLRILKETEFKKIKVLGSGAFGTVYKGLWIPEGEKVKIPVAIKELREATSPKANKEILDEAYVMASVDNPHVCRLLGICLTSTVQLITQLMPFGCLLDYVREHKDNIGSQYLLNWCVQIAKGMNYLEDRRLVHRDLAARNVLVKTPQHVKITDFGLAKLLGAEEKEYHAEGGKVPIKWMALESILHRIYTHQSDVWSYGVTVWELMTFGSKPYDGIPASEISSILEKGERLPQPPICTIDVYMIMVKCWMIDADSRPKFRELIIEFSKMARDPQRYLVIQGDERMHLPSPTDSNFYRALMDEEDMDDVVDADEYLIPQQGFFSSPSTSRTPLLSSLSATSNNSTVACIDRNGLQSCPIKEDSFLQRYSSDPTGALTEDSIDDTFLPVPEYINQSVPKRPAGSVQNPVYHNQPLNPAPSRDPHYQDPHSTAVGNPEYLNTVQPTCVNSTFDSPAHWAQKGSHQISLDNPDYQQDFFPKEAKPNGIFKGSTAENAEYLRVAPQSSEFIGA

## C=CC(=O)Nc1cccc(NC(=O)CSc2nc(Nc3ccccc3)c3ccccc3n2)c1
MDA-MB-231
  pIC50: 4.99
MGC-803
  pIC50: 5.14
NCI-H1975 [1]
  pIC50: 5.09
PC-3
  pIC50: 5.06

## O=C(CSc1nc(Nc2ccccc2)c2ccccc2n1)Nc1ccc(Br)cc1
MDA-MB-231
  pIC50: 4.94
MGC-803
  pIC50: 4.71
NCI-H1975 [1]
  pIC50: 4.97
PC-3
  pIC50: 5.07

## C=CC(=O)Nc1cccc(NC(=O)CSc2nc(Nc3cccc(F)c3)c3ccccc3n2)c1
NCI-H1975 [2]
  Activity: 55.32%
NCI-H1975 [3]
  Activity: Active
NCI-H1975 [4]
  viability at 2 µM: 78.5%
NCI-H1975 [5]
  inhibition: Dose-Dependent Effect
NCI-H1975 [6]
  inhibition: Dose-Dependent Effect
MDA-MB-231
  pIC50: 5.09
MGC-803
  pIC50: 5.20
NCI-H1975 [1]
  pIC50: 5.69
PC-3
  pIC50: 5.27
NCI-H1975 [7]
  Activity: 28.59%
NCI-H1975 [8]
  Activity: 16.09%
NCI-H1975 [9]
  Activity: 62.46%
NCI-H1975 [10]
  Activity: 32.22%
NCI-H1975 [11]
  Activity: 5.32%
NCI-H1975 [12]
  Activity: 63.16%
NCI-H1975 [13]
  Activity: 33.44%
NCI-H1975 [14]
  Activity: 3.4%
NCI-H1975 [15]
  Activity: Active
NCI-H1975 [16]
  Activity: Active
NCI-H1975 [17]
  Activity: Active
NCI-H1975 [18]
  Activity: Active
[19]
  inhibition: Dose-Dependent Effect
[20]
  inhibition: Dose-Dependent Effect
NCI-H1975 [21]
  Activity: 7.91%
NCI-H1975 [22]
  Activity: 8.83%
NCI-H1975 [23]
  Activity: 4.75%
NCI-H1975 [24]
  viability at 4 µM: 63.7%
NCI-H1975 [25]
  Activity: 9.73%
NCI-H1975 [26]
  Activity: 14.2%
NCI-H1975 [27]
  Activity: 12.4%
NCI-H1975 [28]
  viability at 8 µM: 53.4%
NCI-H1975 [29]
  Activity: 18.2%
NCI-H1975 [30]
  Activity: 32.3%
NCI-H1975 [31]
  Activity: 14.3%

## C=CC(=O)Nc1cccc(NC(=O)CSc2nc(Nc3ccc(Cl)cc3Cl)c3ccccc3n2)c1
MDA-MB-231
  pIC50: 4.64
MGC-803
  pIC50: 4.92
NCI-H1975 [1]
  pIC50: 5.22
PC-3
  pIC50: 4.59

## C=CC(=O)Nc1cccc(NC(=O)CSc2nc(Nc3ccc(CC)cc3)c3ccccc3n2)c1
MDA-MB-231
  pIC50: 4.84
MGC-803
  pIC50: 5.10
NCI-H1975 [1]
  pIC50: 5.08
PC-3
  pIC50: 4.61

## C=CC(=O)Nc1cccc(NC(=O)CSc2nc(Nc3ccc(C(F)(F)F)cc3)c3ccccc3n2)c1
MDA-MB-231
  pIC50: 4.94
MGC-803
  pIC50: 4.92
NCI-H1975 [1]
  pIC50: 4.89
PC-3
  pIC50: 4.90

## C=CC(=O)Nc1cccc(NC(=O)CSc2nc(Nc3ccc(F)c(Cl)c3)c3ccccc3n2)c1
MDA-MB-231
  pIC50: 4.98
MGC-803
  pIC50: 5.11
NCI-H1975 [1]
  pIC50: < 4.30
PC-3
  pIC50: < 4.30

## C=CC(=O)Nc1cccc(NC(=O)CSc2nc(Nc3cccc(C)c3)c3ccccc3n2)c1
MDA-MB-231
  pIC50: 4.78
MGC-803
  pIC50: 4.68
NCI-H1975 [1]
  pIC50: 4.92
PC-3
  pIC50: 4.53

## O=C(CSc1nc(Nc2ccccc2)c2ccccc2n1)Nc1cccc(Br)c1
MDA-MB-231
  pIC50: 4.76
MGC-803
  pIC50: 5.02
NCI-H1975 [1]
  pIC50: 4.99
PC-3
  pIC50: 4.94

## O=C(CSc1nc(Nc2ccccc2)c2ccccc2n1)Nc1cccc([N+](=O)[O-])c1
MDA-MB-231
  pIC50: 4.48
MGC-803
  pIC50: 4.55
NCI-H1975 [1]
  pIC50: 4.75
PC-3
  pIC50: 4.93

## C=CC(=O)Nc1cccc(NC(=O)CSc2nc(Nc3ccccc3F)c3ccccc3n2)c1
MDA-MB-231
  pIC50: 4.73
MGC-803
  pIC50: 4.58
NCI-H1975 [1]
  pIC50: 5.18
PC-3
  pIC50: 5.03

## COc1cccc(NC(=O)CSc2nc(Nc3ccccc3)c3ccccc3n2)c1
MDA-MB-231
  pIC50: 4.66
MGC-803
  pIC50: 5.00
NCI-H1975 [1]
  pIC50: 4.71
PC-3
  pIC50: 4.94

## O=C(CSc1nc(Nc2ccccc2)c2ccccc2n1)Nc1ccc(F)cc1
MDA-MB-231
  pIC50: 4.47
MGC-803
  pIC50: < 4.30
NCI-H1975 [1]
  pIC50: 4.78
PC-3
  pIC50: 5.02

## O=C(CSc1nc(Nc2ccccc2)c2ccccc2n1)Nc1ccc([N+](=O)[O-])cc1
MDA-MB-231
  pIC50: 4.78
MGC-803
  pIC50: < 4.30
NCI-H1975 [1]
  pIC50: 4.89
PC-3
  pIC50: 4.60

## C=CC(=O)Nc1cccc(NC(=O)CSc2nc(Nc3ccc(F)cc3)c3ccccc3n2)c1
MDA-MB-231
  pIC50: 5.02
MGC-803
  pIC50: 5.08
NCI-H1975 [1]
  pIC50: 5.35
PC-3
  pIC50: 5.08
